This is an account of results in publication PMC5681660, “Reduced hepatitis B and D viral entry using clinically applied drugs as novel inhibitors of the bile acid transporter NTCP” (Scientific Reports, 2017).

Entries after “also recorded” stand apart in the source; their conditions may differ.

The test system of data set [1] is HDV. Put plainly: HDV infection of HepaRG cells (HDAg immunofluorescence). The data set is classed as cell-based, hepatitis delta virus. The settings on record: HDAg positive cells, day 5; concentration-dependent.
Data set [2] has as its target T1, human NTCP (Homo sapiens, UniProt Q14973).
T1 sequence (Q14973 1-349): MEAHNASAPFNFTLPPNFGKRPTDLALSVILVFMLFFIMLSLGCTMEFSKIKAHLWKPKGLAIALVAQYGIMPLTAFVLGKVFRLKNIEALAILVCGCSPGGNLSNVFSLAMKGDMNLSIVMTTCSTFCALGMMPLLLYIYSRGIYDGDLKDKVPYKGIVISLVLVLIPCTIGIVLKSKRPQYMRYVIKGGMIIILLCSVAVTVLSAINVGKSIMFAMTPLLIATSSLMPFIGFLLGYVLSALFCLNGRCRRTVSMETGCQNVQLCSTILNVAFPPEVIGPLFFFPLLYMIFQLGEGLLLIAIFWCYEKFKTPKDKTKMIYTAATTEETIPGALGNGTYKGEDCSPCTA
Description: Myrcludex B-FITC binding by confocal microscopy in U2OS-HA-hNTCP cells. Further details: HA; expressed in transfected cells. As to the method: After 24 hours, medium was aspirated and cells were washed once with 300 µl Leibovitz’s L-15 Medium (Invitrogen). A 30 minute incubation period followed in which all cells were incubated with 0.2 µM Myrcludex B-FITC with or without drug (1, 10, 100 µM) and Hoechst (1/1000) in 300 µL Leibovitz’s L-15 Medium. Cells were washed twice with Leibovitz’s L-15 Medium and subsequently 400 µL Leibovitz’s L-15 Medium was added. Live cell fluorescent imaging was performed using a Leica SP8X-SMD confocal microscope with fully enclosed incubation at 37 °C. A 63x oil objective was used and images were captured while the cells were consecutively excited at 490 nm (FITC) 350 nm (Hoechst). ImageJ software (National Insititutes of Health, Bethesda, MD) was employed for data analysis.

Data set [3] addresses T1, human NTCP. Description: Screening taurocholate uptake assay (96-well, [14C]taurocholate, 10 µM drug).
Data set [4] can be described thus: in vitro. The settings on record: human.
Data set [5] relates to patient-derived HBV (genotype B). Put plainly: Serum-derived HBV genotype B infection of HepaRG cells stably transduced with hNTCP. In kind it is cell-based, hepatitis B virus. The settings on record: NTCP-overexpressing HepaRG cells. The method, then: Supplementary materials and methods Serum-derived HBV genotype B infection study For these experiments HepaRG cells stably transduced with hNTCP were used. Differentiation and serum-derived HBV genotype B infection were performed following similar protocols as described for wildtype HepaRG cells in the main materials&methods with the following changes: 8 hours infection and supernatant collection for HBeAg and HBsAg analysis from day 9 to 12. Total RNA was extracted from cells 12 days after infection using the NucleoSpin RNA isolation kit (Macherey-Nagel). Reverse transcription was performed with the High-Capacity cDNA Reverse Transcription Kit (Thermo Scientific). mRNA levels were determined by qPCR using the iTaq™ Universal SYBR® Green Supermix (Bio-rad) with HBV specific primers (forward: 5’-[…]-3’; reverse: 5’-[…]-3’). GAPDH mRNA levels were used for normalization (forward: 5’-[…]-3’; reverse: 5’-[…]-3’). Total DNA was extracted from cells 12 days after infection using the NucleoSpin Tissue kit (Macherey-Nagel). HBV DNA levels were determined by qPCR PerfeCTa qPCR Toughmix (Quanta Biosciences) with HBV specific primers (forward: 5’- […]-3’; reverse: 5’- […]-3’) and a probe (5’-TxRed-[…]-BHQ2-3’). β-globin levels were used for normalization (forward: 5’- […]-3’; reverse: 5’- […]-3’; probe: 5’-HEX- […]-BHQ1-3’). […]

The target of data set [6] is T2, human ASBT (Homo sapiens, UniProt Q12908).
T2 construct: expressed in transfected cells; gift of Paul Dawson; induced with sodium butyrate
T2 sequence (Q12908 1-348): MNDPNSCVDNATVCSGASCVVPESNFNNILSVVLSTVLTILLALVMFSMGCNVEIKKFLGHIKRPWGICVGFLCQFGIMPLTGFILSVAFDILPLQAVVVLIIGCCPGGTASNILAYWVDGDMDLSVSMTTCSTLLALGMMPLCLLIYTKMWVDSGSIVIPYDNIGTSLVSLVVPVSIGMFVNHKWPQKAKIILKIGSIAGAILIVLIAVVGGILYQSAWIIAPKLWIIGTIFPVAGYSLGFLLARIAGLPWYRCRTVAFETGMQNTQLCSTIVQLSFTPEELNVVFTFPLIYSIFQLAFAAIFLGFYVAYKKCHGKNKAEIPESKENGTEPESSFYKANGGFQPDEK
Description: Taurocholate uptake in MDCK-hASBT cells. Particulars: compared with NTCP. In kind it is cell-based. The method, then: U2OS and MDCK cells were grown in Dulbecco’s modified Eagle’s medium (DMEM, Sigma-Aldrich), supplemented with 10% FCS (Gibco), 1% L-glutamine (Lonza), and 1% penicillin/streptomycin (Lonza). […] Transient transfection of U2OS cells with mouse NTCP (mNTCP) was done with PEI reagent (Brunschwig, Basel, Switzerland). Shortly, U2OS cells were seeded one day prior to transfection in 24-well plates. On the day of transfection, 0.5 µg DNA was mixed with 100 µl unsupplemented DMEM and 3 µg/µl PEI. After 10–15 minute incubation at RT, 20 µl of the transfection mix was added to each 24-well. Transfected cells were used in further experiments 48–72 hours later. Cell lines were passaged twice a week at a confluence of 80%, and incubated in a humidified atmosphere of 37 °C + 5% CO2.
For MDCK or MDCK-hASBT cells 70.000 cells/well were plated in 24-well plates, followed by 24 hours 10 mM sodium butyrate (Sigma-Aldrich) stimulation the next day. Cells were used in the inhibition studies 24 hours (U2OS cell lines) or 48 hours (MDCK cell lines) later. Inhibition studies with mNTCP transiently transfected cells were conducted 48–72 hours after transfection.
Medium was aspirated from the wells and cells were washed once with 250 µL uptake buffer. Subsequently, cells were pre-incubated with drug in 150 µL uptake buffer for 10 minutes at 37 °C. Taurocholate uptake was initiated by addition of 100 µL uptake buffer containing taurocholate (final concentration 10 µM TC spiked with tritium-labeled TC) and cells were incubated for 2 minutes at 37 °C. Subsequently, cells were washed 4 times with ice-cold PBS and lysed with 0.05% SDS in water. Radioactivity was measured by liquid scintillation counting.

Consider `O=C(O)c1cc(/N=N/c2ccc(S(=O)(=O)Nc3ccccn3)cc2)ccc1O` [Sulfasalazine], for which the “HDV infection in HepaRG cells (in words)” value in data set [1] is reported as “reduced HBV/HDV infection; also recorded: reduce”. The “Myrcludex B-FITC fluorescence / binding to U2OS-HA-hNTCP cells (in words)” value in data set [2] (co-administration with increasing amounts of drug) is given as “reduced”. The “≥50% loss of Myrcludex B binding to hNTCP (concentration)” value in data set [2] (confocal microscopy, 0.2 µM Myrcludex B-FITC, drug 1, 10, 100 µM, concentration at which binding inhibited minimally 50%) is reported as not below 1 µM. In data set [3] (ranking over the functional and the binding screening assay), this compound came in with a Ranking score of 34.8999. This compound also gave a B-score functional assay in data set [3] (screening taurocholate uptake, 10 µM drug) of -3.903. Further, in data set [4], the viability (commonly a read-out of living cells in per cent, often relative to untreated cells) at 2 h, 1 µM was found to be 100 ± 6.9%; the viability at 2 h, 10 µM was 101 ± 8.4%; the viability at 2 h, 100 µM was 97.8 ± 8%. In data set [5], the “HBeAg, HBsAg, HBV DNA and HBV RNA after serum-derived HBV infection” value is “reduced HBeAg, HBsAg, HBV DNA, and HBV RNA in a dose-dependent fashion”. The “HBeAg, HBsAg, HBV DNA and HBV RNA after serum-derived HBV infection” value in data set [5] (listed as sulfasalazine) is recorded as “reduced by sulfasalazine in a dose-dependent fashion”. The “inhibition of ASBT-mediated taurocholate uptake” value in data set [6] is “largely ineffective”. Moreover, the “inhibition of ASBT-mediated taurocholate uptake” value in data set [6] (listed as sulfasalazine) is “Complete absence of ASBT inhibition”.
